Reference: patent US20090143279A1 (priority 2007, published 2009)
Like-named read-outs stand apart in the source and are kept apart here.

Columns and labels:
[1] = test system: mitochondrial membrane potential; format: cell-based, mouse
reactive oxygen species = format: cell-based, mouse
OXPHOS gene expression = format: cell-based, mouse
nuOXPHOS transcripts = format: cell-based, mouse
mtOXPHOS transcripts = format: cell-based, mouse
cytochrome c = format: cell-based, mouse
[2] = test system: cellular dehydrogenase activity
[3] = normalized composite Z-score vs mock-treated (DMSO) wells, Conc 20 μM
[4] = composite Z-score vs DMSO, Conc 20 μM
[5] = composite Z-score vs DMSO wells, Conc 20 μM
[6] = 20 μM, composite Z-score vs DMSO
[7] = Conc 20 μM, normalized score vs mock-treated (DMSO) wells
[8] = composite Z-score vs DMSO, Conc 10.62 μM
[9] = composite Z-score vs mock-treated (DMSO) wells, Conc 20 μM

Q: How did the ΔΨm [1, 3] turn out when `COc1cc(C)c(C(=O)O)c(O)c1` [everninic acid] was run?
A: The ΔΨm was −0.942.

Q: What about the ROS (reactive oxygen species; [3]) of the same compound?
A: The ROS was 0.423.

Q: And the GE-HTS (OXPHOS gene expression; [3])?
A: Its GE-HTS is 1.491.

Q: What about the nucOX (nuOXPHOS transcripts; [3]) of the same compound?
A: The nucOX was 1.517.

Q: What about the mitoOX (mtOXPHOS transcripts; [3]) of the same compound?
A: Its mitoOX is 1.116.

Q: What about the cyt c (cytochrome c; [3]) of the same compound?
A: Its cyt c is 0.115.

Q: What about the Viability (C2C12 myotubes; [3]) of the same compound?
A: Its Viability is −0.592.

Q: What about the MTT [2, 3] of the same compound?
A: Its MTT is −1.123.

Q: What does the source list for `CC(C)=CCC/C(C)=C/CC/C(C)=C/CO` [farnesol]?
A: ΔΨm [1, 4]: −0.153; ROS (reactive oxygen species; [4]): 0.550; GE-HTS (OXPHOS gene expression; [4]): −0.066; nucOX (nuOXPHOS transcripts; [4]): 0.106; mitoOX (mtOXPHOS transcripts; [4]): −0.401; cyt c (cytochrome c; [4]): −0.437; Viability (C2C12 myotubes; [4]): −1.327; MTT [2, 4]: −1.554

Q: `CC(C)(OC(=O)c1ccccc1)[C@@H]1Cc2cc3ccc(=O)oc3cc2O1` [felamidin] was tested. Which ΔΨm [1, 4] did it give?
A: Its ΔΨm is 0.600.

Q: And the ROS (reactive oxygen species; [4])?
A: The ROS was 0.710.

Q: What about the GE-HTS (OXPHOS gene expression; [4]) of the same compound?
A: Its GE-HTS is 0.966.

Q: And the nucOX (nuOXPHOS transcripts; [4])?
A: The nucOX was 0.835.

Q: And the mitoOX (mtOXPHOS transcripts; [4])?
A: Its mitoOX is 1.050.

Q: And the cyt c (cytochrome c; [4])?
A: The cyt c was 0.921.

Q: And the Viability (C2C12 myotubes; [4])?
A: The Viability was 0.224.

Q: And the MTT [2, 4]?
A: Its MTT is −0.475.

Q: For `CC(NCCC(c1ccccc1)c1ccccc1)c1ccccc1` (stereo not drawn) [fendiline], which ΔΨm [1, 5] is on record?
A: The ΔΨm was −1.174.

Q: What about the ROS (reactive oxygen species; [5]) of the same compound?
A: The ROS was 0.912.

Q: What about the GE-HTS (OXPHOS gene expression; [5]) of the same compound?
A: Its GE-HTS is −1.005.

Q: What about the nucOX (nuOXPHOS transcripts; [5]) of the same compound?
A: Its nucOX is −0.896.

Q: And the mitoOX (mtOXPHOS transcripts; [5])?
A: Its mitoOX is −0.951.

Q: What about the cyt c (cytochrome c) of the same compound?
A: Its cyt c is −0.405.

Q: And the cyt c (cytochrome c; [5])?
A: The cyt c was −0.752.

Q: What about the Viability (C2C12 myotubes; [5]) of the same compound?
A: The Viability was −0.080.

Q: What about the MTT [2, 5] of the same compound?
A: Its MTT is −1.007.

Q: How did the ΔΨm [1] turn out when `O=C(COc1ccc(Cl)cc1)N1CCN(Cc2ccc3c(c2)OCO3)CC1` [fipexide] was run?
A: The ΔΨm was −0.624.

Q: And the ΔΨm [1, 6]?
A: Its ΔΨm is −0.354.

Q: What about the ROS (reactive oxygen species) of the same compound?
A: The ROS was 0.307.

Q: And the ROS (reactive oxygen species; [6])?
A: Its ROS is 0.873.

Q: What about the GE-HTS (OXPHOS gene expression) of the same compound?
A: Its GE-HTS is 0.169.

Q: And the GE-HTS (OXPHOS gene expression; [6])?
A: The GE-HTS was −0.241.

Q: What about the nucOX (nuOXPHOS transcripts) of the same compound?
A: The nucOX was 0.163.

Q: What about the nucOX (nuOXPHOS transcripts; [6]) of the same compound?
A: The nucOX was −0.010.

Q: What about the mitoOX (mtOXPHOS transcripts) of the same compound?
A: The mitoOX was 0.155.

Q: And the mitoOX (mtOXPHOS transcripts; [6])?
A: Its mitoOX is −0.657.

Q: What about the cyt c (cytochrome c) of the same compound?
A: The cyt c was 0.573.

Q: And the cyt c (cytochrome c; [6])?
A: Its cyt c is −0.071.

Q: What about the Viability (C2C12 myotubes) of the same compound?
A: The Viability was −0.617.

Q: What about the Viability (C2C12 myotubes; [6]) of the same compound?
A: Its Viability is 0.721.

Q: And the MTT [2]?
A: The MTT was −0.924.

Q: And the MTT [2, 6]?
A: Its MTT is −0.186.

Q: With `Oc1ccc2c(c1)O[C@H](c1ccc(O)c(O)c1)[C@@H](O)C2` [fisetinidol, reference compound] as the compound, how does the “ΔΨm (composite Z-score)” value [1, 7] read?
A: The value was −1.528.

Q: And the “ROS (composite Z-score)” value (reactive oxygen species; [7])?
A: The value was −0.215.

Q: What about the “GE-HTS (composite Z-score)” value (OXPHOS gene expression; [7]) of the same compound?
A: The value was −0.998.

Q: What about the “nucOX (composite Z-score)” value (nuOXPHOS transcripts; [7]) of the same compound?
A: Its value is −1.107.

Q: And the “mitoOX (composite Z-score)” value (mtOXPHOS transcripts; [7])?
A: The value was −0.536.

Q: And the “cyt c (composite Z-score)” value (cytochrome c; [7])?
A: The value was 0.234.

Q: And the “Viability (composite Z-score)” value (C2C12 myotubes; [7])?
A: The value was −1.412.

Q: And the “MTT (composite Z-score)” value [2, 7]?
A: The value was −1.804.

Q: Which results are given for `COc1cc(O)c(C(=O)/C=C/c2ccccc2)c(OC)c1` [flavokawain B]?
A: ΔΨm [1, 4]: −0.302; ROS (reactive oxygen species; [4]): 0.292; GE-HTS (OXPHOS gene expression; [4]): −1.453; nucOX (nuOXPHOS transcripts; [4]): −1.423; mitoOX (mtOXPHOS transcripts; [4]): −1.291; cyt c (cytochrome c; [4]): 0.708; Viability (C2C12 myotubes; [4]): 0.583; MTT [2, 4]: −0.298

Q: Which ΔΨm [1, 5] does the source give for `O=c1[nH]c(=O)n([C@H]2C[C@H](O)[C@@H](CO)O2)cc1F` [floxuridine] here?
A: Its ΔΨm is −1.275.

Q: What about the ROS (reactive oxygen species; [5]) of the same compound?
A: The ROS was 0.063.

Q: And the GE-HTS (OXPHOS gene expression; [5])?
A: The GE-HTS was 0.909.

Q: What about the nucOX (nuOXPHOS transcripts; [5]) of the same compound?
A: The nucOX was 0.993.

Q: And the mitoOX (mtOXPHOS transcripts; [5])?
A: Its mitoOX is 0.539.

Q: What about the cyt c (cytochrome c; [5]) of the same compound?
A: The cyt c was −0.314.

Q: What about the Viability (C2C12 myotubes; [5]) of the same compound?
A: The Viability was −0.712.

Q: And the MTT [2, 5]?
A: Its MTT is −1.643.

Q: `CC(=O)[C@@]1(O)CC[C@H]2[C@@H]3C[C@H](C)C4=CC(=O)C=C[C@]4(C)[C@@]3(F)[C@@H](O)C[C@@]21C` [fluorometholone] was tested. Which ΔΨm [1, 8] did it give?
A: Its ΔΨm is −0.299.

Q: What about the ROS (reactive oxygen species; [8]) of the same compound?
A: Its ROS is 2.141.

Q: And the GE-HTS (OXPHOS gene expression; [8])?
A: Its GE-HTS is 0.446.

Q: And the nucOX (nuOXPHOS transcripts; [8])?
A: Its nucOX is 0.038.

Q: And the mitoOX (mtOXPHOS transcripts; [8])?
A: Its mitoOX is 1.187.

Q: What about the cyt c (cytochrome c; [8]) of the same compound?
A: The cyt c was −0.324.

Q: What about the Viability (C2C12 myotubes; [8]) of the same compound?
A: Its Viability is −0.965.

Q: What about the MTT [2, 8] of the same compound?
A: Its MTT is −1.306.

Q: How did the ΔΨm [1, 6] turn out when `Fc1ccc(C(c2ccccc2)(c2ccccc2F)n2ccnc2)cc1` (stereo not drawn) [flutrimazole] was run?
A: The ΔΨm was −0.429.

Q: And the ROS (reactive oxygen species; [6])?
A: Its ROS is 0.781.

Q: What about the GE-HTS (OXPHOS gene expression; [6]) of the same compound?
A: Its GE-HTS is −0.763.

Q: And the nucOX (nuOXPHOS transcripts; [6])?
A: Its nucOX is −0.592.

Q: And the mitoOX (mtOXPHOS transcripts; [6])?
A: The mitoOX was −0.915.

Q: What about the cyt c (cytochrome c; [6]) of the same compound?
A: The cyt c was 0.904.

Q: What about the Viability (C2C12 myotubes; [6]) of the same compound?
A: The Viability was 0.858.

Q: What about the MTT [2, 6] of the same compound?
A: The MTT was −0.356.

Q: For `C[C@]12CCC(=O)C(O)=C1CC[C@@H]1[C@@H]2CC[C@]2(C)C(=O)CC[C@@H]12` [formestane], which ΔΨm [1, 4] is on record?
A: The ΔΨm was −0.608.

Q: What about the ROS (reactive oxygen species; [4]) of the same compound?
A: The ROS was 1.013.

Q: What about the GE-HTS (OXPHOS gene expression; [4]) of the same compound?
A: The GE-HTS was 0.097.

Q: And the nucOX (nuOXPHOS transcripts; [4])?
A: The nucOX was 0.050.

Q: What about the mitoOX (mtOXPHOS transcripts; [4]) of the same compound?
A: Its mitoOX is 0.121.

Q: And the cyt c (cytochrome c; [4])?
A: The cyt c was −0.115.

Q: And the Viability (C2C12 myotubes; [4])?
A: The Viability was −0.582.

Q: And the MTT [2, 4]?
A: Its MTT is −0.725.

Q: What does the source list for `COc1cc2ccc(=O)oc2c(OC)c1OC` [fraxidin methyl ether]?
A: ΔΨm [1, 9]: −0.713; ROS (reactive oxygen species; [9]): 0.276; GE-HTS (OXPHOS gene expression; [9]): −0.124; nucOX (nuOXPHOS transcripts; [9]): −0.104; mitoOX (mtOXPHOS transcripts; [9]): −0.103; cyt c (cytochrome c; [9]): −0.098; Viability (C2C12 myotubes; [9]): −1.325; MTT [2, 9]: −2.013
